In ChEMBL document CHEMBL2073796, “Multidrug resistance protein 2 (MRP2) transports HIV protease inhibitors, and transport can be enhanced by other drugs” (AIDS, 2002):

Molecular target: ATP-binding cassette sub-family C member 2 (Homo sapiens, UniProt Q92887)
Assay: TP_TRANSPORTER: transepithelial transport (basal to apical) in MRP2-expressing MDCKII cells
Assay type: functional, cell-based
Settings: dog, mdck-ii

Chain of ATP-binding cassette sub-family C member 2 (Q92887 whole entry): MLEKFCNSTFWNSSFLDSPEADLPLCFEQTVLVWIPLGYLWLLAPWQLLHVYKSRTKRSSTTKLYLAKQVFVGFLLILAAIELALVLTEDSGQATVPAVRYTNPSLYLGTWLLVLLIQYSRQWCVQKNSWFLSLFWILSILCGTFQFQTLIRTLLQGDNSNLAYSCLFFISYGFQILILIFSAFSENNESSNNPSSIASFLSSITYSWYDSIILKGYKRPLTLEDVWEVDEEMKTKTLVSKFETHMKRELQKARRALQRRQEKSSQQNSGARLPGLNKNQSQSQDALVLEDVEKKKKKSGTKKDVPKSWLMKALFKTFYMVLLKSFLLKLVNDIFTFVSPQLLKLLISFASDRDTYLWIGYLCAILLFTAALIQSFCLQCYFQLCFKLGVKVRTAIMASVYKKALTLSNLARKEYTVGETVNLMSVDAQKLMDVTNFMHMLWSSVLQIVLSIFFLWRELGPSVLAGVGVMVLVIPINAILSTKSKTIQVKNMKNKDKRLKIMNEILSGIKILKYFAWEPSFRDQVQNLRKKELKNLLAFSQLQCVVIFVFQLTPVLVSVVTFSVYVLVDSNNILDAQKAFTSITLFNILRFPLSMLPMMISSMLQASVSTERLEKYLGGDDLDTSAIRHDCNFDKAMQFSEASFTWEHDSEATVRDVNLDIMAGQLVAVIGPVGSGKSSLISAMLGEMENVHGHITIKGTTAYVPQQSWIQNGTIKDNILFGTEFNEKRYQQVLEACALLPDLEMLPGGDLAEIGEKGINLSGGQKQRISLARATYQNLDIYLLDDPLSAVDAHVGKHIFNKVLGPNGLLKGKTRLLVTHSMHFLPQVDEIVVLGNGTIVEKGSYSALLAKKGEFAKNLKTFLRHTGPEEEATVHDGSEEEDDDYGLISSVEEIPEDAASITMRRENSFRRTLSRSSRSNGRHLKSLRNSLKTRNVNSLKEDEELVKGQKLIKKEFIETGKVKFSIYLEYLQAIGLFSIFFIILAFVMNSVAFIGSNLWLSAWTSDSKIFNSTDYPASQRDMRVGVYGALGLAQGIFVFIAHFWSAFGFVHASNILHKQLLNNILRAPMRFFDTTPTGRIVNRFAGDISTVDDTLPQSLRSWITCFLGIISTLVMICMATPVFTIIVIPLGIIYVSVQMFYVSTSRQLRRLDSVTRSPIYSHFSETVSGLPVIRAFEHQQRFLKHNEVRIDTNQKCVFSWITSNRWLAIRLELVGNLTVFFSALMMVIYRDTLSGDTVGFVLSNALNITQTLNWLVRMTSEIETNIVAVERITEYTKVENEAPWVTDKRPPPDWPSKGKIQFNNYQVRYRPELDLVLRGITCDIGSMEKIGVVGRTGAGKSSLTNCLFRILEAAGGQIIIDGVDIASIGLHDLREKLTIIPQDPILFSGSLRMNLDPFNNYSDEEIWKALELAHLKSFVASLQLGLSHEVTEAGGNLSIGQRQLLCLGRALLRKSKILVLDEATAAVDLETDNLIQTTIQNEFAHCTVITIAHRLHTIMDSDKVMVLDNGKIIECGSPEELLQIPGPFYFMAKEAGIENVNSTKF

With `CC(C)(C)NC(=O)[C@@H]1CN(Cc2cccnc2)CCN1C[C@@H](O)C[C@@H](Cc1ccccc1)C(=O)N[C@H]1c2ccccc2C[C@H]1O.O` the Activity was “substrate [+]”.
